Values after ≈ are worked out from the molar mass of the structure shown.
Tests used:
Relaxin receptor 1 [1] = biological target: T1, Relaxin receptor 1 (Mus musculus, UniProt Q6R6I7); assay: Agonist activity at mouse RXFP1 stably expressed in HEK293 cells assessed as intracellular cAMP accumulation incubated for 30 mins by HTRF assay; format: functional, cell-based
T1 sequence (Q6R6I7 whole entry): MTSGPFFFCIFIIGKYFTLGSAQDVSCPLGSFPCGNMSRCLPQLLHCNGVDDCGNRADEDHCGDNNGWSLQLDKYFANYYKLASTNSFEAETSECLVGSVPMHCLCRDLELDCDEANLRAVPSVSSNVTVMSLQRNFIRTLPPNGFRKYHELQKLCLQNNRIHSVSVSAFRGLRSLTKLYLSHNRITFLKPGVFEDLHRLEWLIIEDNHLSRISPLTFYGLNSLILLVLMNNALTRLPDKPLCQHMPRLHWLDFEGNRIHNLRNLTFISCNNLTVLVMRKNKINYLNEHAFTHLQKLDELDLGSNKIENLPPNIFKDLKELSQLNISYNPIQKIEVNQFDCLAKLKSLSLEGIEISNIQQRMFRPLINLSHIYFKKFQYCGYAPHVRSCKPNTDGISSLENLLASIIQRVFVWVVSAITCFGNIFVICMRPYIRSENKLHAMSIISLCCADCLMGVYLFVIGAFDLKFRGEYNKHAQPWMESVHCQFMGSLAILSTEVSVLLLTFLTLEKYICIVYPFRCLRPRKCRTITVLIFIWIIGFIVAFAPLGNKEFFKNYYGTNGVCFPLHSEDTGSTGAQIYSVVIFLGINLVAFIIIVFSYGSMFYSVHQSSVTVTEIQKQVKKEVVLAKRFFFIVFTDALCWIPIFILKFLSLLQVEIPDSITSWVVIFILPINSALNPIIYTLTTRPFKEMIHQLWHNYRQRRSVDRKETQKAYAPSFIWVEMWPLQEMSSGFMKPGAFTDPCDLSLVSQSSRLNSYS

[2] = Microsomal stability in mouse liver microsomes assessed as compound remaining measured after 30 mins; format: ADME, Microsome; conditions: read-out: Stability
[3] = Microsomal stability in rat liver microsomes assessed as compound remaining measured after 30 mins; format: ADME, Microsome; conditions: read-out: Stability
[4] = Microsomal stability in human liver microsomes assessed as compound remaining measured after 30 mins; format: ADME, Microsome; conditions: read-out: Stability
Relaxin receptor 1 [5] = biological target: T1, Relaxin receptor 1; assay: Partial agonist activity at mouse RXFP1 expressed in HEK293 cells assessed as intracellular cAMP accumulation incubated for 30 mins by HTRF assay; format: functional, cell-based
Relaxin receptor 1 [6] = biological target: T2, Relaxin receptor 1 (Homo sapiens, UniProt Q9HBX9); assay: Agonist activity at human RXFP1 stably expressed in HEK293 cells assessed as intracellular cAMP accumulation incubated for 30 mins by HTRF assay
T2 sequence (Q9HBX9 whole entry): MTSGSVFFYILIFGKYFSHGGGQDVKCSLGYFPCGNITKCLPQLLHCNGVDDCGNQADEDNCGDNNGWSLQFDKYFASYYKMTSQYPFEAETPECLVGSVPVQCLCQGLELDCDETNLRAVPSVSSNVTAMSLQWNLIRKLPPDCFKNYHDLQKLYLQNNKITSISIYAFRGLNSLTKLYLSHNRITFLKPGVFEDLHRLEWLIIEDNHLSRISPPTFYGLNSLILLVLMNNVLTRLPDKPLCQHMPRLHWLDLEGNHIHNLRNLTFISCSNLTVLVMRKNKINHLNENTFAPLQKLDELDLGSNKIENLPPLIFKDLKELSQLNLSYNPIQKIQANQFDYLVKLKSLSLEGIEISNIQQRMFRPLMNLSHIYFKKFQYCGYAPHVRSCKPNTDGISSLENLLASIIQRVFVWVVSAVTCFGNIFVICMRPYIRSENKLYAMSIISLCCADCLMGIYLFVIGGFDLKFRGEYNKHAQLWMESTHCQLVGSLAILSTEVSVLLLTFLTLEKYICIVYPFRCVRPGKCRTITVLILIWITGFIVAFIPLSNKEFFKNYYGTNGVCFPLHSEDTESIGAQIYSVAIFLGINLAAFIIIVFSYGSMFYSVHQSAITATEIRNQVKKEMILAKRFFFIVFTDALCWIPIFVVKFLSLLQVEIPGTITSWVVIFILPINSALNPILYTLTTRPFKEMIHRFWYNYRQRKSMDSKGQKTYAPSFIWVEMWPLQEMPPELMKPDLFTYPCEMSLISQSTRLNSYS

Relaxin receptor 1 [7] = biological target: T3, Relaxin receptor 1 (Rattus norvegicus, UniProt Q6R6I6); assay: Agonist activity at rat RXFP1 stably expressed in HEK293 cells assessed as intracellular cAMP accumulation incubated for 30 mins by HTRF assay; format: cell-based
T3 sequence (Q6R6I6 whole entry): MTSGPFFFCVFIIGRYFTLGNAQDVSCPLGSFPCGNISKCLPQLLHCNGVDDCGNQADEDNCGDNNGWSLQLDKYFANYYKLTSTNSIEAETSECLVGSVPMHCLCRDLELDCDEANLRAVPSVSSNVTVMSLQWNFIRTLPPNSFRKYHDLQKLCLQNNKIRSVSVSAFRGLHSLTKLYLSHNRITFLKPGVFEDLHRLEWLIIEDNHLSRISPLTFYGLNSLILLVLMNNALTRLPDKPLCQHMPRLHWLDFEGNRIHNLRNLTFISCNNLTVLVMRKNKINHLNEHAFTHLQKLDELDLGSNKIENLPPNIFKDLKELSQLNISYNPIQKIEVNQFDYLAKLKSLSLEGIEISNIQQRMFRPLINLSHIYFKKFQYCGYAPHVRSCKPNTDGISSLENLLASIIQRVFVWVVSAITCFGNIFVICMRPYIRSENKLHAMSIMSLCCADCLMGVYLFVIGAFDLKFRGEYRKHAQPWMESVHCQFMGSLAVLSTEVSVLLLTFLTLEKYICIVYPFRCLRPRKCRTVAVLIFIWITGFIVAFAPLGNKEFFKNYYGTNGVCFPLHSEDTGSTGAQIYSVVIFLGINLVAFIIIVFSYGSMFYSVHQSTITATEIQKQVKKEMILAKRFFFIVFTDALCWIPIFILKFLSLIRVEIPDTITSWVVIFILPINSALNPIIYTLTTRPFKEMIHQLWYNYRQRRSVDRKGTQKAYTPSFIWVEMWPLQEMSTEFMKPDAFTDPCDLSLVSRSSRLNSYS

[8] = Thermodynamic aqueous solubility of compound in phosphate buffer at pH 7.4 by reversed-phase ultrahigh pressure liquid chromatography; format: physicochemical; conditions: for solubility thermodynamic: phosphate buffer, read-out: Therm_solubility

| SMILES | EC50 (Relaxin receptor 1 [1]) [µM] | remaining at 0.5 h [2] [%] | remaining at 0.5 h [3] [%] | remaining at 0.5 h [4] [%] | EC50 (Relaxin receptor 1 [6]) [µM] | other results |
| --- | --- | --- | --- | --- | --- | --- |
| COc1ccc(-c2cccc(C(=O)O)c2)cc1C(=O)N[C@H]1[C@@H](C(=O)Nc2ccc(F)c(C(F)(F)F)c2)[C@H]2CC[C@@H]1C2=C(C)C | 6.3 | – | – | – | – | – |
| COC(=O)c1ccc(F)c(-c2ccc(OC)c(C(=O)N[C@H]3[C@@H](C(=O)Nc4ccc(F)c(C(F)(F)F)c4)[C@H]4CC[C@@H]3C4=C(C)C)c2)c1 | > 10 | – | – | – | – | – |
| COc1cc(F)c(F)cc1C(=O)N[C@H]1[C@@H](C(=O)Nc2ccc(F)c(C(F)(F)F)c2)[C@@H]2CC[C@@H]1C2C(C)C (stereo in doubt) | – | – | – | – | 3.5 | – |
| COc1cc(F)c(F)cc1C(=O)N[C@H]1[C@@H](C(=O)Nc2ccc(F)c(C(F)(F)F)c2)[C@H]2CC[C@@H]1/C2=C1/C=Cc2ccccc21 | – | – | – | – | 0.81 | – |
| COc1cc(F)c(F)cc1C(=O)N[C@H]1[C@@H](C(=O)Nc2ccc(F)c(C(F)(F)F)c2)[C@@H]2CC[C@@H]1C2C(C)C (single isomer, unassigned; isomer 2) | – | – | – | – | 14 | – |
| COc1ccc(-c2cncnc2)cc1C(=O)N[C@H]1[C@@H](C(=O)Nc2ccc(F)c(C(F)(F)F)c2)[C@H]2CC[C@@H]1C2=C(C)C | > 10 | – | – | – | – | – |
| COc1ccc(-c2cccnc2)cc1C(=O)N[C@H]1[C@@H](C(=O)Nc2ccc(F)c(C(F)(F)F)c2)[C@H]2CC[C@@H]1C2=C(C)C | > 10 | – | – | – | – | – |
| COc1ccc(-c2cc(C(=O)O)ccc2OC)cc1C(=O)N[C@H]1[C@@H](C(=O)Nc2ccc(F)c(C(F)(F)F)c2)[C@H]2CC[C@@H]1C2=C(C)C | 4.6 | – | – | – | – | – |
| COc1ccc(-c2ccncc2)cc1C(=O)N[C@H]1[C@@H](C(=O)Nc2ccc(F)c(C(F)(F)F)c2)[C@H]2CC[C@@H]1C2=C(C)C | > 20 | – | – | – | – | – |
| COc1ccc(-c2ccccc2C(=O)O)cc1C(=O)N[C@H]1[C@@H](C(=O)Nc2ccc(F)c(C(F)(F)F)c2)[C@H]2CC[C@@H]1C2=C(C)C | > 20 | – | – | – | – | – |
| COc1cc(F)c(F)cc1C(=O)N[C@H]1[C@@H](C(=O)Nc2ccc(F)c(C(F)(F)F)c2)[C@H]2CC[C@@H]1/C2=C\c1c(Cl)cccc1Cl | – | – | – | – | 3.7 | – |

Further compounds by falling EC50 (Relaxin receptor 1 [1]), results first:

| EC50 (Relaxin receptor 1 [1]) [µM] | remaining at 0.5 h [2] [%] | remaining at 0.5 h [3] [%] | remaining at 0.5 h [4] [%] | EC50 (Relaxin receptor 1 [6]) [µM] | SMILES | other results |
| --- | --- | --- | --- | --- | --- | --- |
| 3 | > 90 | > 90 | > 90 | – | COc1ccc(-c2cc(O)ccc2F)cc1C(=O)N[C@H]1[C@@H](C(=O)Nc2ccc(F)c(C(F)(F)F)c2)[C@H]2CC[C@@H]1/C2=C\c1cnoc1 | – |
| 2.3 | – | – | – | 0.38 | COc1ccc(-c2ccc(C(=O)O)cc2)cc1C(=O)N[C@H]1[C@@H](C(=O)Nc2ccc(F)c(C(F)(F)F)c2)[C@H]2CC[C@@H]1C2=C(C)C | EC50 (Relaxin receptor 1 [5]): 2.3 µM |
| 2.2 | – | – | – | – | COc1ccc(-c2cc(C(=O)O)ccc2F)cc1C(=O)N[C@H]1[C@@H](C(=O)NCc2ccccc2C(F)(F)F)[C@H]2CC[C@@H]1/C2=C\C1CC1 | – |
| 1.7 | – | – | – | – | COc1ccc(-c2cc(C(=O)O)ccc2C)cc1C(=O)N[C@H]1[C@@H](C(=O)Nc2ccc(F)c(C(F)(F)F)c2)[C@H]2CC[C@@H]1C2=C(C)C | – |
| 1.3 | – | – | – | – | COc1ccc(-c2cc(C(=O)O)ccc2F)cc1C(=O)N[C@H]1[C@@H](C(=O)NC2CCCC2)[C@H]2CC[C@@H]1/C2=C\C1CC1 | – |
| 1.3 | > 90 | > 90 | > 90 | 0.016 | COc1ccc(-c2cc(C(=O)O)ccc2F)cc1C(=O)N[C@H]1[C@@H](C(=O)Nc2ccc(F)c(C(F)(F)F)c2)[C@H]2CC[C@@H]1/C2=C\c1ccccc1 | – |
| 1.1 | > 90 | > 90 | > 90 | 0.013 | COc1ccc(-c2cc(C(O)C(=O)O)ccc2F)cc1C(=O)N[C@H]1[C@@H](C(=O)Nc2ccc(F)c(C(F)(F)F)c2)[C@H]2CC[C@@H]1/C2=C\c1cnoc1 (some centres undefined) | EC50 (Relaxin receptor 1 [7]): 1.1 µM; solubility thermodynamic [8]: 60 µg/mL (≈ 86 µM) |
| 0.95 | > 90 | > 90 | > 90 | – | COc1ccc(-c2cc(C(N)=O)ccc2F)cc1C(=O)N[C@H]1[C@@H](C(=O)Nc2ccc(F)c(C(F)(F)F)c2)[C@H]2CC[C@@H]1/C2=C\c1cnoc1 | – |
| 0.94 | – | – | – | – | COc1ccc(-c2cc(C(=O)O)ccc2F)cc1C(=O)N[C@H]1[C@@H](C(=O)Nc2ccc(F)c(C(F)(F)F)c2)[C@H]2CC[C@@H]1C2=C(C)C | – |
| 0.74 | > 90 | > 90 | > 90 | 0.011 | COc1ccc(-c2cc(CC(=O)O)ccc2F)cc1C(=O)N[C@H]1[C@@H](C(=O)Nc2ccc(F)c(C(F)(F)F)c2)[C@H]2CC[C@@H]1/C2=C\c1cnoc1 | EC50 (Relaxin receptor 1 [7]): 1.2 µM; solubility thermodynamic [8]: 130 µg/mL (≈ 191 µM) |
| 0.56 | > 90 | > 90 | > 90 | 0.022 | COc1ccc(-c2cc(C(=O)NS(C)(=O)=O)ccc2F)cc1C(=O)N[C@H]1[C@@H](C(=O)Nc2ccc(F)c(C(F)(F)F)c2)[C@H]2CC[C@@H]1/C2=C\c1cnoc1 | EC50 (Relaxin receptor 1 [7]): 0.89 µM; solubility thermodynamic [8]: < 1 µg/mL |
| 0.39 | > 90 | > 90 | > 90 | 0.006 | CNC(=O)OC(C(=O)O)c1ccc(F)c(-c2ccc(OC)c(C(=O)N[C@H]3[C@@H](C(=O)Nc4ccc(F)c(C(F)(F)F)c4)[C@H]4CC[C@@H]3/C4=C\C3CC3)c2)c1 (stereo in doubt; 40) | EC50 (Relaxin receptor 1 [7]): 0.59 µM; Therm_solubility ([8]; buffer): 250 µg/mL |
| 0.14 | > 90 | > 90 | > 90 | – | COc1ccc(-c2cc(C(=O)O)ccc2F)cc1C(=O)N[C@H]1[C@@H](C(=O)Nc2ccc(F)c(C(F)(F)F)c2)[C@H]2CC[C@@H]1/C2=C\C1CC1 | – |
| 0.11 | > 90 | > 90 | > 90 | 0.008 | CNC(=O)OC(C(=O)O)c1ccc(F)c(-c2ccc(OC)c(C(=O)N[C@H]3[C@@H](C(=O)Nc4ccc(F)c(C(F)(F)F)c4)[C@H]4CC[C@@H]3/C4=C\c3cnoc3)c2)c1 (some centres undefined) | EC50 (Relaxin receptor 1 [7]): 0.14 µM |

From ChEMBL document CHEMBL6182920, “The Discovery of C7-Substituted Norbornyl Bisamides as RXFP1 Small Molecule Agonists” (J Med Chem, 2025)
